Numbers after ± are expanded uncertainties.
How the values were obtained:
[1] = Liquid; for mass density: 298.15 K, 101.33 kPa
[2] = refractive index (Na D-line) (dimensionless); conditions: 298.15 K; 101.33 kPa; Liquid; Standard Abbe refractometry

Row | Compound | mass density [1] [kg/m3] | refractive index [2] | further results
1 | C1CCOC1 [tetrahydrofuran] | 889.2 ± 4.7 | 1.4072 ± 0.0007 | vapor or sublimation pressure ([1]; 337.55 K): 95.8 ± 4.8 kPa
2 | Cc1ccc(C)cc1 [1,4-dimethylbenzene] | 865.6 ± 4.7 | 1.4933 ± 0.0007 | vapor or sublimation pressure ([1]; 409.35 K): 95.8 ± 4.8 kPa
3 | Cc1ccccc1C [1,2-dimethylbenzene] | 875.9 ± 1.7 | 1.503 ± 0.0007 | vapor or sublimation pressure ([1]; 415.55 K): 95.8 ± 4.8 kPa
4 | COCCOC [1,2-dimethoxyethane] | 863.7 ± 1.8 | 1.3781 ± 0.0007 | vapor or sublimation pressure ([1]; 357.05 K): 95.8 ± 4.8 kPa
5 | O=C1CCCCC1 [cyclohexanone] | 945.1 ± 1.1 | 1.451 ± 0.0007 | vapor or sublimation pressure ([1]; 426.45 K): 95.8 ± 4.8 kPa
6 | CCCCCCCCCC [decane] | 726.4 ± 2.9 | 1.4097 ± 0.0007 | vapor or sublimation pressure ([1]; 445.25 K): 95.8 ± 4.9 kPa
7 | Cc1cccc(C)c1 [1,3-dimethylbenzene] | 860.1 ± 1.8 | 1.4946 ± 0.0007 | vapor or sublimation pressure ([1]; 410.35 K): 95.8 ± 4.8 kPa

From the NIST ThermoML archive (doi:10.1016/j.fluid.2004.10.027)
